Like-named read-outs stand apart in the source and are kept apart here. One block for each compound: values may come before it.
Experiments:
[1] = test system: p53; experiment: p53 activation assay, p53 responsive luciferase reporter cell line; type: cell-based, human; details: for p53 activation, active or inactive carbazole: structural analysis, FIGS. 6 and 7
Description: The potency of a present carbazole compound is determined by measuring an ability of the compound to inhibit NF-κB activity or to activate p53. […] Theoretically, such assays of the dose-response effect of activator compounds can be described as a sigmoidal curve expressing a degree of activation as a function of concentration. The curve also theoretically passes through a point at which the concentration is sufficient to increase activity to a level that is 50% that of the difference between a baseline and the maximal activity in the assay. […] Determination of an EC50 value is made using conventional biochemical (acellular) assay techniques or cell-based assay techniques.
The potency of a carbazole compound is determined by measuring an ability of the compound to activate p53.
The p53 activation assay for determination of the EC50 value was performed as follows:
HT1080-L (human fibrosarcoma cells with ConALuc reporter)
RCC45ConALuc (human renal cell carcinoma cell line with ConALuc reporter)
1. Two types of standard cells were used, either HT1080-L or RCC45ConALuc cells. Both cell lines stably express a p53 responsive luciferase reporter construct.
2. HT1080-L cells were grown in DMEM medium containing 10% FBS. RCC45ConALuc cells were grown in RPMI medium containing 10% FBS (Pen/Strep can be added to a final concentration of 1%, if desired). Both cell lines were grown in a humidified incubator at 37° C. with 5% CO2. For normal culturing, both cell lines were split using 1× trypsin-EDTA at a ratio of 1:20 for HT1080-L and 1:5 for RCC45ConALuc cells every 3-4 days (when cells are 80-90% confluent).
3. A day before the experiment, the cells are trypsinized for about 5 minutes in 1× tripsin/EDTA solution in 37° C. incubator and plated in 96 well plates. HT1080-L cells were seeded at a density of 1×10^4/well in standard DMEM medium in a volume of 50 μl. RCC45ConALuc were seeded at a density of 2×10^4/well in the volume of 50 uL in standard RPMI medium.
4. The next day, various carbazole compounds were prepared by dilution of stock solutions in standard DMEM medium such that the cells were treated with the final chemical concentrations in Table 1 below. Stock solutions were made up in DMSO. Typically, chemicals were made up as 20 mM stock solutions.
5. Each tested compound used two rows of a 96-well plate, thus four compounds (e.g., W, X, Y, Z) were tested in one plate simultaneously. In addition to test compounds, each plate included positive and negative controls. As positive control, 9aa was used at a dose of 3 μM. As a negative control, DMSO was used in final concentration 0.1%.
1. Dilutions of chemicals added to the plate were made up as 2× concentrations in standard DMEM and added to corresponding well in a volume of 50 μl.
2. Chemicals were diluted in standard DMEM by two time serial dilutions starting from 40 μM (2× of highest concentration, e.g., 20 μM). For one cell line, the minimum volume was 125 μL of 2× working solution of chemical of each concentration in standard DMEM.
4. Sixteen hours following compound addition, all wells with the highest concentrations of compounds are checked microscopically for the presence of toxic effect, because death of cells caused by compounds may not allow detecting luciferase activity. If cytotoxocity is evident, other doses of the same compounds were checked for the presence of toxicity. The lowest dose causing toxic effect was recorded.
5. After microscopic examination, 15 μl of Bright Glo luciferase assay system were added to each well and after 5 min incubation at RT, the plates were read on a 96 well plate luminometer with a measurement time of 0.1 sec. A shaking step was included before measurement.
6. The folds of luciferase activation for each concentration of each chemical were calculated by dividing the detected luciferase activity at each chemical concentration by the average of the luciferase activity for the DMSO control on the same plate.

[2] = test system: Plasmodium falciparum (strain D10); experiment: Plasmodium falciparum in vitro culture, infected erythrocytes; type: cell-based; details: tested at 29, 57, 143 nM or 143 nM only; FIG. 12
Description: In particular, the effect of carbazole compounds on the malaria parasite was tested by culturing Plasmodium falciparum (strain D10) in vitro in the presence or absence of test compounds.
In each experiment, 1000 erythrocytes were assessed microscopically to determine the number of infected cells.

[3] = test system: Bacillus subtilis; experiment: antibacterial cytotoxicity assay, gram(+) bacteria (OD600); type: cell-based; details: B. subtilis, 48 hours, over a range of potencies; FIG. 13B
Description: In vitro test to evaluate the effect of carbazole compounds on gram(-) and gram(+) bacteria. Two days prior to the start of the cytotoxicity assay, inoculate DH5-α and B. subtilis into 1 ml of corresponding media from glycerol stocks. Allow to grow during the course of the day at 37° C. with shaking. Streak each bacteria on the appropriate agar plates using a sterile inoculation loop and allow to grow overnight at 37° C. in the bacteria incubator. Using a sterile inoculation loop, pick a single colony of bacteria and inoculate 5 ml of the corresponding media in a 14 ml snap cap tube. Grow overnight ( 16 h) at 37° C. with shaking. […] Dilute 5 ml cultures of DH5-α and B. subtilis to an OD600 nm of 0.002, which corresponds to about 2×10^6 cells/ml in a volume sufficient for the experiment (dependent on the number of plates). Plate out 50 μl into each well of X 96-well plates (X=# plates needed for a given experiment). […] Chemicals for testing are prepared by dilution of stock solutions in LB Broth or Nutrient Broth for DH5-α and B. subtilis studies, respectively. Cells are treated with the final chemical concentrations presented in the scheme below (Table 2). Stock solutions are made up in DMSO. […] However, this concentration is dependent on the solubility of a given chemical and actual stock concentrations must be noted at time of experiment. Each library chemical to be tested requires 2 rows of a 96-well plate, thus 4 chemicals ([…]) can be tested in one plate simultaneously. In addition to test chemicals, each plate should include positive and negative controls. As positive control, ampicillin is used at 100 μg/ml. […] Dilutions of chemicals to be added to the plate are made up as 2× concentrations in appropriate bacteria media and added to corresponding wells in a volume of 50 μl. […] This process is repeated until all 10 2× doses are prepared. […] Following the addition of carbazole compounds to 96-well plates containing bacteria, plates are transferred to the 37° C. bacteria incubator for 48 hours. After the incubation, the OD600 mm for each well of the 96-well plates will be measured. […] The % DMSO control is plotted vs compound concentration to generate sigmoid shaped curves. After three runs are complete, the raw data for all three runs is used for IC50 calculations.

[4] = test system: HB 101 E. coli; experiment: antibacterial cytotoxicity assay, gram(−) bacteria (OD600); type: cell-based; details: 48 hours, over a range of potencies, FIG. 13A
[5] = test system: Bloodstream T. brucei; experiment: T. brucei bloodstream form in vitro killing; type: cell-based, Trypanosoma brucei; details: Trypanosoma brucei, read-out: IC50 (concentration that killed 50% of the parasites); bloodstream stage, 48 hrs of culture
Description: Preliminary T. brucei inactivation experiments were performed in vitro. The life cycle of T. brucei involves a “procyclic” developmental stage in a tsetse fly, and a “bloodstream” form in humans. All studies were performed with the bloodstream stage of the parasite, because it is the disease-causing developmental stage.
Suramin, a conventional anti-HAT drug, was used as a positive control.
Bloodstream T. brucei was seeded (3×10^3 cells/mL) in 24-well (500 uL of the media per well) plate. […] Control cultures received equal volumes of DMSO.

[6] = test system: Caki1 human renal cell carcinoma cells; experiment: Caki1 renal cell carcinoma xenograft efficacy test; details: Day 24 (end of treatment); oral gavage 5 day on/2 day off; Example 7 30, Example 15 5, Example 13 25, Sunitinib 40 mg/kg
[7] = Homo sapiens, HT1080-L or RCC45ConALuc reporter cells, 16 h, read-out: EC50 value (p53 activation)
[8] = Table 3, test compounds of the malaria experiment
[9] = Homo sapiens, 16 h, HT1080-L or RCC45ConALuc reporter cells, 16 h, read-out: EC50 value (p53 activation)
[10] = HT1080-L or RCC45ConALuc reporter cells, 16 h, read-out: EC50 value (p53 activation)

Compound: CCN(CC)CCCn1c2ccc([N+](=O)[O-])cc2c2cc([N+](=O)[O-])ccc21 [Example 23]
EC50 [1, 7]: 0.88 µM

Compound: CNCCCn1c2ccc([N+](=O)[O-])cc2c2cc([N+](=O)[O-])ccc21 [Example 25]
EC50 [1, 7]: 0.88 µM

Compound: CCN(CC)CCn1c2ccc(C(=O)NC)cc2c2cc(C(=O)NC)ccc21 [Example 27]
EC50 [1, 9]: 0.54 µM

Compound: CCCNCCCn1c2ccc(C(C)=O)cc2c2c3c(ccc21)C(=O)CC3 [Example 6, 9-Acetyl-6-[3-(propylamino)propyl]-1,6-dihydrocyclopenta[c]carbazol-3(2H)-one]
EC50 [1, 10]: 0.24 µM

Compound: CC(=O)c1cc2c3cc(C(C)=O)c(O)cc3n(CCCN(C)C)c2cc1O [Example 12]
antibacterial effect [3]: antibacterial effect | antibacterial effect [4]: antibacterial effect

Compound: Cc1ccc(C(=O)Nc2ccc(S(=O)(=O)O)c3cc(S(=O)(=O)O)cc(S(=O)(=O)O)c23)cc1NC(=O)c1cccc(NC(=O)Nc2cccc(C(=O)Nc3cc(C(=O)Nc4ccc(S(=O)(=O)O)c5cc(S(=O)(=O)O)cc(S(=O)(=O)O)c45)ccc3C)c2)c1 [Suramin, reference compound]
IC50 [5]: > 300 nM

Compound: CN(C)CCCn1c2ccc([N+](=O)[O-])cc2c2cc([N+](=O)[O-])ccc21 [Example 21]
EC50 [1, 10]: 0.83 µM

Compound: CCN(CC)CCn1c2ccc(C(C)=O)cc2c2cc(C(C)=O)ncc21 [Compound 300, reference compound]
p53 activation, active or inactive carbazole [1]: active

Compound: CC(=O)c1ccc2c(c1)c1c3c(ccc1n2CC[C@@H]1CCCN1C)C(=O)CC3 [Compound 18c-2]
EC50 [1, 9]: 0.1 µM

Compound: CCCCCn1c2ccc(C(C)=O)cc2c2c3c(ccc21)C(=O)CC3 [Compound 500, reference compound]
EC50, μM (p53 activation assay) [1, 8]: Inactive | anti-malarial activity, parasitemia reduction [2]: no parasitemia reduction

Compound: CC(=O)c1ccc2c(c1)c1cc(C(C)=O)ccc1n2CCC1CCCN1C (stereo not drawn) [Example 2, 1,1′-{9-[2-(1-Methylpyrrolidin-2-yl)ethyl]-9H-carbazole-3,6-diyl}diethanone]
EC50 ([1]; Homo sapiens, read-out: EC50, μM (p53 activation assay)): 0.64 µM | EC50 [1, 7]: 0.64 µM | p53 activation, active or inactive carbazole [1]: active | anti-malarial activity, parasitemia reduction [2]: anti-malarial activity comparable to quinacrine

Compound: CN(C)CCCN(c1ccccc1)c1ccc2c(c1)CCC2=O [Compound 200, reference compound]
p53 activation, active or inactive carbazole [1]: inactive

Compound: CCN(CC)CCn1c2ccc(C(C)=O)cc2c2cc(C(C)=O)c(O)cc21 [Compound 19a]
EC50 [1, 9]: 0.4 µM

Compound: O=[N+]([O-])c1ccc2c(c1)c1cc([N+](=O)[O-])ccc1n2CCCN1CCCC1 [Example 24]
EC50 [1, 7]: 0.78 µM

Compound: CCN(CC)CCNC(=O)c1c(C)[nH]c(/C=C2\C(=O)Nc3ccc(F)cc32)c1C [Sunitinib, reference compound]
tumor growth inhibition compared to the vehicle control [6]: 42%

Compound: CC(=O)c1ccc2c(c1)c1cc(C(C)=O)ccc1n2CCC1CCCN1C (stereo not drawn) [Compound 3e]
EC50 [1, 9]: 0.78 µM

Continued, in another order:

EC50, μM (p53 activation assay) [1, 8]: Inactive
Compound: CCN(CC)CCn1c2ccccc2c2cc(C(C)=O)ncc21.Cl [Compound 400, reference compound]
anti-malarial activity, parasitemia reduction [2]: no parasitemia reduction

EC50 ([1]; Homo sapiens, 16 h, read-out: EC50 value (p53 activation, μM)): 0.07 µM
Compound: CC(=O)c1cc2c3c4c(ccc3n(CCCN(C)C)c2cc1O)C(=O)CC4 [Example 4, 9-Acetyl-6-[3-(dimethylamino)propyl]-8-hydroxy-1,6-dihydrocyclopenta[c]carbazol-3(2H)-one]
antibacterial effect [3]: antibacterial effect | antibacterial effect [4]: antibacterial effect

EC50 [1, 10]: 0.53 µM
Compound: CCN(CC)CCn1c2ccccc2c2cc(C(C)=O)c(O)cc21 [Compound 22, 3-Acetyl-2-hydroxy-9-N,N-diethylaminoethylcarbazole]

EC50 [1, 9]: 0.64 µM
Compound: CCC(=O)c1ccc2c(c1)c1cc(C(=O)CC)ccc1n2CCCN(C)C [Compound 7d]

EC50 [1, 9]: 0.29 µM
Compound: CCN(CC)CCn1c2ccc(C(C)=O)cc2c2cc(C(C)=O)ccc21 [Compound 3a]

EC50 [1, 9]: 0.05 µM
Compound: CCCNCCCn1c2ccc3c(c2c2c4c(ccc21)C(=O)CC4)CCC3=O [Example 14]

EC50 ([1]; Homo sapiens, Table 3, test compounds of the malaria experiment, read-out: EC50, μM (p53 activation assay)): ~5 µM
Compound: CCN(CC)CCCC(C)Nc1c2ccc(Cl)cc2nc2ccc(OC)cc12 (stereo not drawn) [Quinacrine, reference compound]

EC50 [1, 9]: 0.07 µM
Compound: CC(=O)c1cc2c3c4c(ccc3n(CCCN(C)C)c2cc1O)C(=O)N(C)C4 [Compound 19e]

EC50 [1, 9]: 0.08 µM
Compound: CC(=O)c1ccc2c(c1)c1c3c(ccc1n2CCC1CCCN1C)C(=O)CC3 (stereo not drawn) [Compound 18c-1]
antibacterial effect [3]: antibacterial effect | antibacterial effect [4]: antibacterial effect

EC50 [1, 9]: 0.49 µM
Compound: CC(=O)c1ccc2c(c1)c1cc(C(C)=O)ccc1n2CCCN(C)C [Compound 3b]
